The experiment deals with T1, human CTPS1 (Homo sapiens, UniProt P17812).
T1 construct: FLAG (with GG linker); His8 (with GG linker); purchased Proteros biostructures GmbH
T1 sequence (P17812 1-591): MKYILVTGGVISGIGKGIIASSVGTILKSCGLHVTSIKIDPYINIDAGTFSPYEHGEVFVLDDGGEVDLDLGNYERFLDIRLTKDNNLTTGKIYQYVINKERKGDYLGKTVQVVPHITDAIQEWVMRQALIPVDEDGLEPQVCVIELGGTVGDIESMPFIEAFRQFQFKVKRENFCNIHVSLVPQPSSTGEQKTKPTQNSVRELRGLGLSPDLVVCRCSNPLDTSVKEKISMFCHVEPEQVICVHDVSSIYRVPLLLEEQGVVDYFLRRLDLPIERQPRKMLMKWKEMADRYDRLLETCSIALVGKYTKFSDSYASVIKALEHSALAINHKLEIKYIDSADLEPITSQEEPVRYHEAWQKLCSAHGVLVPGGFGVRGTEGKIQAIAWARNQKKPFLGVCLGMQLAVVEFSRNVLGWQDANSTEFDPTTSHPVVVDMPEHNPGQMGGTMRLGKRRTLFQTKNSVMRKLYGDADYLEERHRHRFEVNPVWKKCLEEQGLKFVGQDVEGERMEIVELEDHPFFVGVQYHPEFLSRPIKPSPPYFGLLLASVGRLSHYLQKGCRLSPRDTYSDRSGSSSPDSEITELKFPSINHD
The experiment is described as follows: RapidFire/MS-based enzyme selectivity assay (human CTPS1 versus CTPS2), CTPS1 isoform. The experiment is classed as biochemical. In a few lines: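 Full-length C-terminal FLAG-His-tagged CTPS1 (1-591) was preincubated 10 min at 25 °C with compound in HEPES pH 8.0 buffer with MgCl2, KCl, DTT and Tween-20. Reactions were started with a 2× mix of ATP 0.3 mM, UTP 0.2 mM, GTP 0.07 mM and L-glutamine 0.1 mM, and run in the linear phase at 25 °C. IC50 comes from the RapidFire-MS ratio of CTP to 13C9-15N3-CTP.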

The mark [1] stands for this setting: RapidFire/MS IC50 values of CTPS1 and CTPS2, Table 15.
[2] abbreviates: Table 16, human CTPS1 over human CTPS2, RapidFire/MS IC50 values.
The mark [3] stands for this setting: RapidFire/MS IC50 values of CTPS1 and CTPS2, Table 17.

In the case of `CC(C)(C(=O)Nc1ccc(-c2cccnc2)cc1)c1ccnc(NS(=O)(=O)C2CC2)n1` [P59, 2-(2-(cyclopropanesulfonamido)pyrimidin-4-yl)-2-methyl-N-(4-(pyridin-3-yl)phenyl)propanamide], the “Selectivity (fold selectivity between CTPS1 and CTPS2)” value under setting [1] was “+ (2-30 fold (+))”. Still for that read-out and setting: to `CC(C)Oc1cncc(-c2ccc(C(=O)NC(C)(C)c3cncc(NS(=O)(=O)C4CC4)n3)c(F)c2)n1` [P221, N-(2-(6-(cyclopropanesulfonamido)pyrazin-2-yl)propan-2-yl)-2-fluoro-4-(6-isopropoxypyrazin-2-yl)benzamide] belongs “+ (2-30 fold (+))”; to `CCOc1cncc(-c2ccc(NC(=O)C(CC)c3ccnc(NS(=O)(=O)C4CC4)n3)c(C)c2)n1` (centres unmarked) [P161, 2-(2-(cyclopropanesulfonamido)pyrimidin-4-yl)-N-(4-(9-ethoxypyrazin-2-yl)-2-methylphenyl)butanamide], “+ (2-30 fold (+))”. `CC(C)Oc1cncc(-c2ccc(NC(=O)Cc3ccnc(NS(=O)(=O)C4CC4)n3)c(F)c2)n1` [P12, 2-(2-(cyclopropanesulfonamido)pyrimidin-4-yl)-N-(2-fluoro-4-(6-isopropoxypyrazin-2-yl)phenyl)acetamide]: the “Selectivity (fold selectivity between CTPS1 and CTPS2)” value under setting [1] is recorded as “++ (>30-60 fold (++))”. As to `Cc1sc(NS(=O)(=O)C2CC2)nc1C(C)(C)NC(=O)c1ccc(-c2cncc(C(F)(F)F)n2)cc1` [R78, N-(2-(2-(cyclopropanesulfon-amido)-5-methylthiazol-4-yl)propan-2-yl)-4-(6-(trifluoromethyl)pyrazin-2-yl)benzamide], the “Selectivity (fold selectivity between CTPS1 and CTPS2)” value under setting [2] is listed as “++ (>30-60 fold (++))”. Consider `CC(C)Oc1cncc(-c2ccc(NC(=O)C(C)(C)c3ccnc(NS(=O)(=O)C4CC4)n3)c(F)c2)n1` [P39], for which the “Selectivity (fold selectivity between CTPS1 and CTPS2)” value under setting [1] was “+ (2-30 fold (+))”. Still for that read-out and setting: with `CCOc1cncc(-c2ccc(NC(=O)C3(c4ccnc(NS(=O)(=O)C5CC5)n4)CCCC3)cc2)n1` [P2, 1-(2-(Cyclopropanesulfonamido)pyrimidin-4-yl)-N-(4-(6-ethoxypyrazin-2-yl)phenyl)cyclopentanecarboxamide] the entry was “+++ (>60 fold (+++))”.

For the compound `CC(C)Oc1cncc(-c2ccc(NC(=O)Cc3ccnc(NS(=O)(=O)C4CC4)n3)cc2)n1` [P21, 2-(2-(cyclopropanesulfonamido)pyrimidin-4-yl)-N-(4-(6-isopropoxypyrazin-2-yl)phenyl)acetamide], the “Selectivity (fold selectivity between CTPS1 and CTPS2)” value under setting [1] was “++ (>30-60 fold (++))”. Still for that read-out and setting: to `CCOc1cncc(-c2ccc(NC(=O)C(C)(C)c3ccnc(NS(C)(=O)=O)n3)nc2)n1` [P76, N-(5-(6-ethoxypyrazin-2-yl)pyridin-2-yl)-2-methyl-2-(2-(methylsulfonamido)pyrimidin-4-yl)propanamide] belongs “++ (>30-60 fold (++))”. Regarding `CCOc1cncc(-c2ccc(NC(=O)C3(c4ccnc(NS(=O)(=O)C5CC5)n4)CCOCC3)nc2)n1` [P115, 4-(2-(Cyclopropanesulfonamido)pyrimidin-4-yl)-N-(5-(6-ethoxypyrazin-2-yl)pyridin-2-yl)tetrahydro-2H-pyran-4-carboxamide], the “Selectivity (fold selectivity between CTPS1 and CTPS2)” value under setting [1] is “+++ (>60 fold (+++))”. For the compound `CCOc1cncc(-c2ccc(NC(=O)C(CC)c3cccc(NS(=O)(=O)C4CC4)n3)cc2)n1` (centres unmarked) [P191, 2-(6-(cyclopropanesulfonamido)pyridin-2-yl)-N-(4-(6-ethoxypyrazin-2-yl)phenyl)butanamide], the “Selectivity (fold selectivity between CTPS1 and CTPS2)” value under setting [1] was “++ (>30-60 fold (++))”. For `CCc1cncc(-c2ccc(C(=O)NC(CCOC)c3csc(NS(=O)(=O)C4CC4)n3)c(F)c2)n1` (centres unmarked) [R86, N-(1-(2-(cyclopropanesulfon-amido)thiazol-4-yl)-3-methoxypropyl)-4-(6-ethyl-pyrazin-2-yl)-2-fluorobenzamide], the “Selectivity (fold selectivity between CTPS1 and CTPS2)” value under setting [2] was “+++ (>60 fold (+++))”. Regarding `CCOc1cncc(-c2ccc(C(=O)NC(C)c3csc(NS(=O)(=O)C4CC4)n3)c(F)c2)n1` (centres unmarked) [R91, N-(1-(2-(cyclopropanesulfon-amido)thiazol-4-yl)ethyl)-4-(6-ethoxypyrazin-2-yl)-2-fluorobenzamide], the “Selectivity (fold selectivity between CTPS1 and CTPS2)” value under setting [2] is given as “+++ (>60 fold (+++))”. `CCOc1cncc(-c2ccc(NC(=O)C(CC)c3ccnc(NS(=O)(=O)C4CC4)n3)cc2)n1` (centres unmarked) [P105, 2-(2-(cyclopropanesulfonamido)pyrimidin-4-yl)-N-(4-(6-ethoxypyrazin-2-yl)phenyl)butanamide]: the “Selectivity (fold selectivity between CTPS1 and CTPS2)” value under setting [1] was “++ (>30-60 fold (++))”. Turning to `CC(C)(NC(=O)c1ccc(-c2cncc(C(F)(F)F)n2)cc1F)c1csc(NS(=O)(=O)C2CC2)n1` [R42, N-(2-(2-(cyclopropanesulfonamido)thiazol-4-yl)propan-2-yl)-2-fluoro-4-(6-(trifluoromethyl)pyrazin-2-yl)benzamide], the “Selectivity (fold selectivity between CTPS1 and CTPS2)” value under setting [2] is given as “++ (>30-60 fold (++))”.

On to `O=C(NC1(c2csc(NS(=O)(=O)C3CC3)n2)CC1)c1ccc(-c2cncc(C(F)(F)F)n2)cc1` [R84, N-(1-(2-(cyclopropanesulfon-amido)thiazol-4-yl)cyclopropyl)-4-(6-(trifluoromethyl)pyrazin-2-yl)benzamide], for which, under setting [2], the “Selectivity (fold selectivity between CTPS1 and CTPS2)” value is given as “+++ (>60 fold (+++))”. Still for that read-out and setting: to `CCOc1cncc(-c2ccc(C(=O)NC(C)(C)c3csc(NS(=O)(=O)C4CC4)n3)c(C(F)(F)F)c2)n1` [R47, N-(2-(2-(cyclopropanesulfonamido)thiazol-4-yl)propan-2-yl)-4-(6-ethoxypyrazin-2-yl)-2-(trifluoromethyl)benzamide] belongs “+ (2-30 fold (+))”. Consider `CCOc1cncc(-c2ccc(NC(=O)C(C)(OC)c3cncc(NS(=O)(=O)C4CC4)n3)nc2)n1` (single isomer, unassigned) [P205b, 2-(6-(cyclopropanesulfonamido)pyrazin-2-yl)-N-(5-(6-ethoxypyrazin-2-yl)pyridin-2-yl)-2-methoxypropanamide], for which the “Selectivity (fold selectivity between CTPS1 and CTPS2)” value under setting [1] is “++ (>30-60 fold (++))”. For `COCCC(NC(=O)c1ccc(-c2cncc(OC(C)C)n2)cc1F)c1csc(NS(=O)(=O)C2CC2)n1` (centres unmarked) [R89, N-(1-(2-(cyclopropanesulfon-amido)thiazol-4-yl)-3-methoxypropyl)-2-fluoro-4-(6-isopropoxypyrazin-2-yl)benzamide], under setting [2], the “Selectivity (fold selectivity between CTPS1 and CTPS2)” value is “+++ (>60 fold (+++))”. Regarding `CCOc1cncc(-c2ccc(C(=O)NCc3ccnc(NS(=O)(=O)C4CC4)n3)cc2)n1` [P118, N-((2-(cyclopropanesulfonamido)pyrimidin-4-yl)methyl)-4-(6-ethoxypyrazin-2-yl)benzamide], the “Selectivity (fold selectivity between CTPS1 and CTPS2)” value under setting [1] is on record as “+++ (>60 fold (+++))”. Regarding `CCOc1cncc(-c2ccc(NC(=O)C(C)(C)c3ccnc(NS(=O)(=O)C4CC4)n3)c(F)c2)n1` [P38, 2-(2-(cyclopropanesulfonamido)pyrimidin-4-yl)-N-(4-(6-ethoxypyrazin-2-yl)-2-fluorophenyl)-2-methylpropanamide], the “Selectivity (fold selectivity between CTPS1 and CTPS2)” value under setting [1] is “+ (2-30 fold (+))”. `CCOc1cncc(-c2ccc(NC(=O)C(F)(CC)c3ccnc(NS(=O)(=O)C4CC4)n3)nc2)n1` (single isomer, unassigned) [P114, 2-(2-(Cyclopropanesulfonamido)pyrimidin-4-yl)-N-(5-(6-ethoxypyrazin-2-yl)pyridin-2-yl)-2-fluorobutanamide]: the “Selectivity (fold selectivity between CTPS1 and CTPS2)” value under setting [1] was “+++ (>60 fold (+++))”. On to `CCOc1cncc(-c2ccc(NC(=O)C3(c4ccnc(NS(=O)(=O)C5CC5)n4)CCC(F)(F)CC3)nc2)n1` [P242], for which the “Selectivity (fold selectivity between CTPS1 and CTPS2)” value under setting [3] is given as “+++ (>60 fold (+++))”. As for `CCOc1cncc(-c2ccc(NC(=O)C3(c4ccnc(NS(=O)(=O)C5CC5)n4)CCC(O)CC3)nc2)n1` (single isomer, unassigned) [P227, 1-(2-(cydopropanesulfonamido)pyrimidin-4-yl)-N-(5-(6-ethoxypyrazin-2-yl)pyridin-2-yl)-4-hydroxycyclohexanecarboxamide], under setting [3], the “Selectivity (fold selectivity between CTPS1 and CTPS2)” value is on record as “+++ (>60 fold (+++))”. As to `CCC(C(=O)Nc1ccc(-c2cncc(OCC(F)(F)F)n2)cc1)c1ccnc(NS(=O)(=O)C2CC2)n1` (centres unmarked) [P108, 2-(2-(cyclopropanesulfonamido)pyrimidin-4-yl)-N-(4-(9-(2,2,2-trifluoroethoxy)pyrazin-2-yl)phenyl)butanamide], the “Selectivity (fold selectivity between CTPS1 and CTPS2)” value under setting [1] is reported as “+++ (>60 fold (+++))”. Consider `CCOc1cncc(-c2ccc(C(=O)NC(CC)c3csc(NS(=O)(=O)C4CC4)n3)c(F)c2)n1` (racemic) [R62, N-(1-(2-(cyclopropanesulfonamido)thiazol-4-yl)propyl)-4-(6-ethoxypyrazin-2-yl)-2-fluorobenzamide], for which the “Selectivity (fold selectivity between CTPS1 and CTPS2)” value under setting [2] is “+++ (>60 fold (+++))”.
